# Measurements reported in publication PMC7284125, “Identification of annotated bioactive molecules that impair motility of the blood fluke Schistosoma mansoni” (International Journal for Parasitology: Drugs and Drug …, 2020).
# Read-outs that look alike come from different tables or passages of the source.
# Columns and labels:
# SmD2 = SmD2 (Schistosoma mansoni, UniProt G4LUJ1); assay: cell-based; format: cell-based
# S. mansoni adult worms = assay: Motility assay on adult parasites (pixel displacement, relative to DMSO control); format: cell-based, Schistosoma mansoni; conditions: 10 μM; for Fractional motility: secondary screen
# Procedure, shortened: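 Unpaired adult worms from mice 6 weeks post-infection kept in OPTI-MEM with 5% dialyzed FBS and exposed to compounds at 1 and 10 μM for 24 h. Motility filmed 1 min at 10 frames/s, quantified by pixel displacement versus DMSO-treated worms; recovery followed up to five days after washout.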
# [1] = test system: S. mansoni schistosomulae; assay: Phenotypic primary screen assay on schistosomulae (phenotype; viability by methylene blue dye exclusion); format: cell-based, Schistosoma mansoni
# Procedure, shortened: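 Parasites lacking contraction/relaxation cycles and showing dark internal granulations counted as dead. Movement and body shape were compared with DMSO-treated controls under a stereo microscope at 24 h and at five days of exposure. Larvae came from infected snails shed under light for 2 h at 32 °C.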
# [2] = test system: S. mansoni schistosomulae; assay: as above; format: cell-based; conditions: Schistosoma mansoni
# [3] = test system: S. mansoni schistosomulae; assay: Motility assay on schistosomulae (pixel displacement, relative to DMSO control); format: cell-based, Schistosoma mansoni; conditions: for activity at 1 µM: Schistosoma mansoni, read-out: Fractional motility
# Procedure, shortened: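 Mechanically transformed S. mansoni schistosomulae (200/well) in Opti-MEM with 5% dialyzed FBS were exposed to compounds at 1 and 10 μM for 24 h at 37 °C, 5% CO2. Motility filmed at 10 frames/s for 1 min and quantified by pixel displacement relative to DMSO-treated controls.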
# [4] = test system: naïve Glo HEK293 cells (no receptor); assay: cAMP luminescence (GloSensor) assay on naïve Glo HEK293 cells (no receptor); format: cell-based, human; conditions: for inhibition of EPN-evoked luminescence: 50 μM EPN; for effect on luminescence evoked by forskolin: 20 μM forskolin
# Protocol: The SmGPR2 sequence previously identified ([El-Shehabi and Ribeiro, 2010]) was codon optimized for mammalian expression and subcloned in the vector pCI-neo (Addgene, USA) using the XbaI and NotI restriction enzymes. A FLAG fusion tag ([…]) was introduced at the N-terminal end of the receptor sequence. Stable transfection of HEK293 cells (ATCC; CRL-1573) was performed using the X-tremeGENE 9 DNA transfection reagent (Sigma Aldrich). Cells were then cultured at 37 °C, 5% CO2 in Opti-MEM supplemented with 5% FBS and maintained in 400 μg/mL G418 (Sigma Aldrich) for selection of transformants. […] All cell lines expressing S. mansoni GPCRs were then transfected with the GloSensor encoding plasmid p22F (Promega) and media was supplemented with 100 μg/mL hygromycin for stable expression (ThermoFisher).
# Adherent HEK293 cells were seeded at a density of 5 x 10^4 cells/well (96-well plate) in Opti-MEM without FBS or antibiotics and incubated overnight at 37 °C and 5% CO2 prior to the assay. In place of the media, 100 μL HBSS supplemented with 0.1% bovine serum albumin (BSA), 500 μM 3-isobutyl-1-methylxanthine (IBMX, Sigma Aldrich), 20 mM HEPES (pH 7.4) and 1 mg/mL D-luciferin (Goldbio) was added to each well. After a 2 h incubation period at room temperature, luminescence background was recorded, and compounds and control ligands were added at 10X concentration. Immediately after compound addition, luminescence was read over a 45 min period to detect compounds stimulating cAMP release through receptor activation. […] For each assay, luminescence responses were recorded in triplicate and repeated with four independant cell batches. Compounds were also added to naïve Glo HEK293 cells (no receptor) and the robustness of the assay was calculated as: Z^'=1−3×(SDmax+SDmin)/Meanmax−Meanmin with max and min referring respectively to cells expressing GPCRs and Glo (no receptor) cells. Cellular viability was assessed using a CellTiter Glo 2.0 kit (Promega). Glo cells were exposed to 10 μM of each hit compound for 3 h in Opti-MEM at 37 °C, 5% CO2. An equimolar concentration of tamoxifen (Sigma Aldrich) was used as a positive control. 2X cell lysis media was then added and end-point luminescence recorded after a 10 min stabilization time.
# Sm5HTR = Sm5HTR (Schistosoma mansoni, UniProt G4V5G4); assay: cAMP luminescence (GloSensor) assay, HEK293 cells expressing Sm5HTR; format: cell-based, S. mansoni; conditions: compound incubation followed by 50 μM 5-HT
# Chain of Sm5HTR (G4V5G4 entry or part of it): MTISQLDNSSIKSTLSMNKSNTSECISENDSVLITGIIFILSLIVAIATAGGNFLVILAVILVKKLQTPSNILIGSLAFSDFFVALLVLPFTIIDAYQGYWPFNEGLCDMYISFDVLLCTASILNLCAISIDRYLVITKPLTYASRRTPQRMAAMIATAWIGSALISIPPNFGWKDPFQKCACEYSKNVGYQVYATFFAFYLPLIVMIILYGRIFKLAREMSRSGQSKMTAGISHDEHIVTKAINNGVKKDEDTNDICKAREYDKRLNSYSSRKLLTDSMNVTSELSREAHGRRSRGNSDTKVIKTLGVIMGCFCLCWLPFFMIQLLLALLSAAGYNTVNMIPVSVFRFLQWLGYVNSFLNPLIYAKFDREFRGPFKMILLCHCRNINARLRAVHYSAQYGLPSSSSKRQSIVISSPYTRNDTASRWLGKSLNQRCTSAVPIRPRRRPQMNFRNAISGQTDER
# schistosomes [5] = test system: schistosomes; parameters: method as in Bibo-Verdugo et al., 2019; conditions: in vitro; ref Bibo-Verdugo et al., 2019; cited from earlier work
# schistosomes [6] = test system: schistosomes; parameters: method as in Marcellino et al., 2012; conditions: ref Marcellino et al., 2012; cited from earlier work
# proteasome = test system: proteasome; parameters: method as in Bibo-Verdugo et al., 2019; conditions: in vitro; ref Bibo-Verdugo et al., 2019; cited from earlier work
# [7] = inhibition of EPN-evoked luminescence, SmD2 expressing HEK293 cells, read-out: IC50
# [8] = three-day-old schistosomulae, 10 μM, 24 h, estimated 5 days post compound exposure
# [9] = three-day-old schistosomulae, 10 μM, 24 h, calculated 5 days post compound exposure, read-out: Viability (%)
# [10] = 120 h, schistosomulae, secondary screen, 24h exposure, read at D5, 1 µM
# [11] = schistosomulae, secondary screen, 24h exposure, read at D1, 1 µM
# [12] = schistosomulae, 1h exposure, read at D1, 10 µM
# [13] = schistosomulae, 1h exposure, read at D5, 10 µM
# [14] = schistosomulae, 3h exposure, read at D1, 10 µM
# [15] = schistosomulae, 3h exposure, read at D5, 10 µM
# [16] = schistosomulae, 6h exposure, read at D1, 10 µM
# [17] = schistosomulae, 6h exposure, read at D5, 10 µM
# [18] = schistosomulae, secondary screen, 24h exposure, read at D1, 10 µM
# [19] = schistosomulae, secondary screen, 24h exposure, read at D5, 10 µM
# [20] = NPS-2143 and analogs, 24h, D1, 10 µM
# [21] = NPS-2143 and analogs, 24h, D5, 10 µM
# [22] = 120 h, NPS-2143 and analogs, 24h, D5, 1 µM
# [23] = NPS-2143 and analogs, 24h, D1, 1 µM
# Chain of SmD2 (G4LUJ1 entry or part of it): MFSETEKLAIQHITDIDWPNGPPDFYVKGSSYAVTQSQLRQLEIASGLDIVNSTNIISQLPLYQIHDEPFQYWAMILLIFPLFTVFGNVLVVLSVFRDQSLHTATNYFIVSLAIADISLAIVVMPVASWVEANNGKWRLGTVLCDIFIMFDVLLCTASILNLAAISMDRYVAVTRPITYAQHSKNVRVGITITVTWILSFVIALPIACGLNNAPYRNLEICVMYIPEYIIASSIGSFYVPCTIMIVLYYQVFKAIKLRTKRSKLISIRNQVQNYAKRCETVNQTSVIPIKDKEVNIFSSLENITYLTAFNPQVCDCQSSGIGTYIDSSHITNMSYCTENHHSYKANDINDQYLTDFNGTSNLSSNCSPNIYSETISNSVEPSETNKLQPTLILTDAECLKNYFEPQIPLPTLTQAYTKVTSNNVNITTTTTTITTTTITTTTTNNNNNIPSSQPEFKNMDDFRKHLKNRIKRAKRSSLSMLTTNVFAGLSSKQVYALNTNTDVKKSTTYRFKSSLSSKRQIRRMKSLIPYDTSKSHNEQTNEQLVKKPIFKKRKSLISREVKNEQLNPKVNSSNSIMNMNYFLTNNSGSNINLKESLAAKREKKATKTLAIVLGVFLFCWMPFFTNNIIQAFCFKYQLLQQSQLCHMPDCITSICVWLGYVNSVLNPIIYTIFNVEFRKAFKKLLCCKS
smiles,measurement,setting,value
Cc1ccc(Sc2ccccc2N2CCNCC2)c(C)c1 [Vortioxetine],inhibition at 10 µM,"SmD2; HEK293, SmD2 cells, 10 μM compound, 50 μM EPN, read-out: inhibition of EPN-evoked luminescence",≥ 50%
same,IC50,SmD2; [7],3.68 µM
same,Fractional motility,"S. mansoni adult worms; D1, Female adult worms",2.64
same,Fractional motility,"S. mansoni adult worms; D1, Male adult worms",2.15
same,Fractional motility,"S. mansoni adult worms; D5, Female adult worms",0.24
same,Fractional motility,"S. mansoni adult worms; D5, Male adult worms",1.01
same,effect on viability of schistosomulae in words,"[1]; 24 h incubation, five days",schistosomulicidal
same,Phenotype,[1]; [8],"big, granulated"
same,viability at 10 µM,[2]; [9],10%
same,activity at 1 µM,"[3]; 120 h, Selleckchem customized library secondary screen, 24h, D5, 1 µM",60%
same,Fractional motility,"[3]; Selleckchem customized library secondary screen, 24h, D1, 10 µM",55.99
same,Fractional motility,"[3]; Selleckchem customized library secondary screen, 24h, D5, 10 µM",-0.42
same,motility phenotype in words,"[3]; schistosomulae, after 24 h exposure",high levels of hypermotility
same,inhibition of EPN-evoked luminescence,[4],≥ 50%
O=C(CCCN1CCC2(CC1)C(=O)NCN2c1ccccc1)c1ccc(F)cc1 [spiperone],IC50,SmD2; [7],1.51 µM
"O=[N+]([O-])C=Cc1ccc2c(c1)OCO2 [MNS, 3,4-methylenedioxy-β-nitrostyrene]",inhibition of Sm5HTR 5-HT-evoked signals,Sm5HTR,≥ 50%
same,Fractional motility,"S. mansoni adult worms; D1, Female adult worms",-0.14
same,Fractional motility,"S. mansoni adult worms; D1, Male adult worms",-0.40
same,Fractional motility,"S. mansoni adult worms; D5, Female adult worms",-0.83
same,Fractional motility,"S. mansoni adult worms; D5, Male adult worms",-0.55
same,Phenotype,[1]; [8],"blebbing, dark, granulated"
same,viability at 10 µM,[2]; [9],43%
same,activity at 1 µM,[3]; [10],103%
same,activity at 1 µM,[3]; [11],241%
same,Fractional motility,[3]; [12],-0.95
same,Fractional motility,[3]; [13],-0.06
same,Fractional motility,[3]; [14],-0.96
same,Fractional motility,[3]; [15],-0.87
same,Fractional motility,[3]; [16],-0.83
same,Fractional motility,[3]; [17],-0.87
same,Fractional motility,[3]; [18],2.46
same,Fractional motility,[3]; [19],-0.0952
same,effect on luminescence evoked by forskolin,[4],significant decrease in luminescence
OC(CNCCc1ccccc1)COc1ccccc1C1CCCCC1 (stereo not shown) [compound 35],IC50,SmD2; [7],0.0123 µM
same,Fractional motility,[3]; [20],-0.99
CC(C)C[C@H](NC(=O)[C@H](CCc1ccccc1)NC(=O)CN1CCOCC1)C(=O)N[C@@H](Cc1ccccc1)C(=O)N[C@@H](CC(C)C)C(=O)[C@@]1(C)CO1 [carfilzomib],reduction of worm motility,schistosomes [5],> 85%
same,motility reduction,schistosomes [6],> 90%
same,reduction of proteasome activity,proteasome,> 75%
"CNCCc1ccc(O)c(O)c1 [EPN, epinine]",EC50,"SmD2; luminescent cAMP signal, agonist",2.52 ± 1.12 µM
CC(=O)Nc1ccc(CCNCC(O)COc2cccc3ccccc23)cc1 (stereo not shown) [compound 31],IC50,SmD2; [7],0.0217 µM
same,Fractional motility,[3]; [20],-0.82
same,Fractional motility,[3]; [21],-0.79
same,activity at 1 µM,[3]; [22],-34%
same,activity at 1 µM,[3]; [23],-69%
CNCC[C@H](Oc1cccc2ccccc12)c1cccs1 [Duloxetine],IC50,SmD2,5.95 µM
same,inhibition at 10 µM,"SmD2; HEK293, read-out: inhibition of EPN-evoked luminescence",≥ 50%
same,Fractional motility,"S. mansoni adult worms; D1, Female adult worms",0.62
same,Fractional motility,"S. mansoni adult worms; D1, Male adult worms",4.31
same,Fractional motility,"S. mansoni adult worms; D5, Female adult worms",0.30
same,Fractional motility,"S. mansoni adult worms; D5, Male adult worms",0.54
same,Phenotype,[1],granulated
same,viability at 10 µM,[2],90%
same,activity at 1 µM,[3]; 120 h,-13%
same,inhibition of EPN-evoked luminescence,[4],≥ 50%
O=[N+]([O-])c1ccc2c(c1)S(=O)(=O)C=C2 [Stattic],inhibition of Sm5HTR 5-HT-evoked signals,Sm5HTR,≥ 50%
same,Fractional motility,"S. mansoni adult worms; D1, Female adult worms",0.39
same,Fractional motility,"S. mansoni adult worms; D1, Male adult worms",-0.03
same,Fractional motility,"S. mansoni adult worms; D5, Female adult worms",-0.90
same,Fractional motility,"S. mansoni adult worms; D5, Male adult worms",0.23
same,Viability (%),"[1]; three-day-old schistosomulae, 10 μM, 24 h, calculated 5 days post compound exposure",0%
same,Phenotype,[1]; [8],"big, dark, granulated"
same,Fractional motility,[3]; [12],-0.71
same,Fractional motility,[3]; [13],-0.69
same,Fractional motility,[3]; [14],-0.97
same,Fractional motility,[3]; [15],-1.00
same,Fractional motility,[3]; [16],-0.91
same,Fractional motility,[3]; [17],-0.99
same,Fractional motility,[3]; [11],0.84
same,Fractional motility,[3]; [18],1.23
same,Fractional motility,"[3]; schistosomulae, secondary screen, 24h exposure, read at D5, 1 µM",-0.47
same,Fractional motility,[3]; [19],-0.96
same,effect on luminescence evoked by forskolin,[4],significant decrease in luminescence
COc1ccc(CCNCC(O)COc2ccccc2C2CC3CCC2C3)cc1OC (stereo not shown) [compound 28],IC50,SmD2; [7],0.0272 µM
same,Fractional motility,[3]; [20],-1.00
same,Fractional motility,[3]; [21],-1.00
same,activity at 1 µM,[3]; [22],-67%
same,activity at 1 µM,[3]; [23],-69%
CC(C)C[C@H](NC(=O)[C@H](Cc1ccccc1)NC(=O)c1cnccn1)B(O)O [bortezomib],reduction of worm motility,schistosomes [5],> 85%
same,motility reduction,schistosomes [6],> 90%
same,reduction of proteasome activity,proteasome,> 75%
O=C1CCc2ccc(OCCCCN3CCN(c4cccc(Cl)c4Cl)CC3)cc2N1 [Aripiprazole],Fractional motility,"S. mansoni adult worms; D1, Female adult worms",0.19
same,Fractional motility,"S. mansoni adult worms; D1, Male adult worms",0.50
same,Fractional motility,"S. mansoni adult worms; D5, Female adult worms",-0.80
same,Fractional motility,"S. mansoni adult worms; D5, Male adult worms",-0.14
same,Phenotype,[1]; [8],granulated
same,viability at 10 µM,[2]; [9],96.5%
same,activity at 1 µM,[3]; [10],-61%
same,activity at 1 µM,[3]; [11],-48%
same,Fractional motility,[3]; [18],-0.15
same,Fractional motility,[3]; [19],-0.56
same,inhibition of EPN-evoked luminescence,[4],≥ 50%
CCCCCCCCc1ccc(CCC(N)(CO)CO)cc1 [Fingolimod],Fractional motility,"S. mansoni adult worms; D1, Female adult worms",-0.39
same,Fractional motility,"S. mansoni adult worms; D1, Male adult worms",0.65
same,Fractional motility,"S. mansoni adult worms; D5, Female adult worms",-0.09
same,Fractional motility,"S. mansoni adult worms; D5, Male adult worms",-0.15
same,Phenotype,[1]; [8],"dark, granulated"
same,viability at 10 µM,[2]; [9],0%
same,activity at 1 µM,[3]; [10],151%
same,activity at 1 µM,[3]; [11],180%
same,Fractional motility,[3]; [18],2.04
same,Fractional motility,[3]; [19],-1.00
COc1ccc2cc1Oc1ccc(cc1)C[C@H]1c3cc(c(OC)cc3CCN1C)Oc1c(OC)c(OC)cc3c1[C@H](C2)N(C)CC3 [Tetrandrine],motility phenotype in words,"S. mansoni adult worms; adults, long-term after washout",strongly impaired movement
same,Fractional motility,"S. mansoni adult worms; D1, Female adult worms",-0.51
same,Fractional motility,"S. mansoni adult worms; D1, Male adult worms",-0.37
same,Fractional motility,"S. mansoni adult worms; D5, Female adult worms",-0.97
same,Fractional motility,"S. mansoni adult worms; D5, Male adult worms",-0.61
same,Phenotype,[1]; [8],"big, granulated"
same,viability at 10 µM,[2]; [9],89%
same,activity at 1 µM,[3]; [10],-31%
same,activity at 1 µM,[3]; [11],-9%
same,Fractional motility,[3]; [18],-0.39
same,Fractional motility,[3]; [19],-0.87
